Data taken from PMC9436767, “Optical control of the β2-adrenergic receptor with opto-prop-2: A cis-active azobenzene analog of propranolol” (iScience, 2022).
Several values for one entry are separate records, joined by “and”; a condition that tells them apart may be missing. Identical values can stand only once. Values belong to the compound of their own block, whether it stands above or below them.

Legend:
[1] = test system: isolated adult rat cardiomyocytes; experiment: Contractility (sarcomere shortening) of paced isolated cardiomyocytes; type: cell-based; settings: paced at 2 Hz; for effect on isoprenaline-enhanced contractility: 1 μM with 15 nM isoprenaline
Experimental: To evaluate Opto-prop-2 in a relevant biological system with endogenous levels of the native receptor proteins, it was tested using isolated adult rat cardiomyocytes. Cardiomyocytes were paced at 2Hz, inducing contractions that were quantified by measuring the sarcomere length over time (Figure 6A). […] This enhanced contractility was attenuated by co-incubating with cis-Opto-prop-2 (magenta line) but not by trans-Opto-prop-2 (teal line) at 1 μM concentrations.
Intact adult cardiomyocytes were isolated from 3 adult wild-type Wistar rats weighing 200–250 g as described previously. ([Nollet et al., 2020]; [van Deel et al., 2017]) Briefly, rats were sedated and anesthesized by isoflurane inhalation. The heart was removed and perfused in a Langendorff setup with Liberase TM (Roche) digestive enzymes and the left ventricle was consequently cut into small pieces and resuspended in stopping buffer. This mixture was passed over a 300 μm nylon mesh filter, isolated cells in the filtrate were resuspended in buffer containing 1mM CaCl2. Cells were suspended in plating medium composed of Medium 199 (Lonza), 1% penicillin/streptomycin and 5% bovine serum and plated on a laminin coated dish (10 μg/mL, Sigma-Aldrich). The cells were incubated for 1 h at 37 °C in humidified air with 5% CO2 to let them attach to the coated dish. Afterwards, non-attached cells were removed by washing cells with pre-heated Tyrode solution (137 mM NaCl, 5.4 mM KCl, 3 mM sodium pyruvate, 5 mM HEPES, 0.57 mM MgCl2, 0.33 mM NaH2PO4, 1.0 mM CaCl2 and 5.6 mM glucose, pH 7.4 at 37 °C). Contractility measurements were performed at 37 °C using the Multi-Cell system (CytoCypher, the Netherlands). Cells were treated to vehicle (DMSO), 15 nM isoproterenol alone or in combination with 1 μM of propranolol or Opto-prop-2 (either with or without prior illumination). […]
Changes in sarcomere length were recorded with a high-speed camera and Ionoptix software (Ionoptix, Westwood MA, USA). The contractility profiles were analyzed with the automated, batch analysis software ‘Transient Analysis Tools’ (CytoCypher, Amsterdam, NL). […]

β2-AR [2] = target: T1, β2-AR (Homo sapiens, UniProt P07550); experiment: [3H]DHA radioligand displacement on membranes of HEK293T cells expressing β2-AR; settings: for fold Ki trans vs PSScis at β2-AR: fold difference between Ki of trans and Ki at PSScis; for Active state at β2-AR: isomer state with higher affinity; for Ki: β2-AR; for selectivity in binding β2-AR over β1-AR: cis-isomer (PSScis)
Target sequence in this assay (P07550 whole entry): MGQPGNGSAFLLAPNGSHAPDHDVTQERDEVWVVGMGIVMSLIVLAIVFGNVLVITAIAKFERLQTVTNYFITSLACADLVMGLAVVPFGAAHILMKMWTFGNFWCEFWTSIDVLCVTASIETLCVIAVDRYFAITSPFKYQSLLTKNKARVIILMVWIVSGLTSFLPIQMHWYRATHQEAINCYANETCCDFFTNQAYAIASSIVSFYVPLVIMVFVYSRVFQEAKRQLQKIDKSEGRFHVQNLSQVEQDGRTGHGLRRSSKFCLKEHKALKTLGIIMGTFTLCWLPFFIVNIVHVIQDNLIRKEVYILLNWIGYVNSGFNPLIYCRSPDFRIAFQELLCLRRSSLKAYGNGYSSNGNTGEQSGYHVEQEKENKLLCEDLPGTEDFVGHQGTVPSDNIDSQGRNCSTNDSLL
Experimental: (§5) Membranes of HEK293T-cells transiently expressing the receptor of interest were co-incubated with the tritiated β1/β2-AR antagonist dihydroalprenolol ([^3H]DHA, Figure S2 depicts saturation binding experiments), together with increasing concentrations of the competing unlabeled ligand.
(§6) Two million HEK293T cells were seeded in a 10cm^2 dish and were transiently transfected the next day with 1 μg human β1-AR or the β2-AR plasmid DNA, 4 μg empty pcDEF3 plasmid DNA and 30 μg linear 25 kDa polyethyleneimine (PEI; Polysciences Warrington, USA) in a 150 mM NaCl solution. […] Two days after transfection, cells were resuspended and washed (3 times) with PBS and pelleted by centrifugation steps at 1500 g. After the final centrifugation step, cell pellets were reconstituted into ice-cold Tris-HCl buffer (15 mM, supplemented with 0.3 mM EDTA and 2 mM MgCl2 at pH7.4) and dounce-homogenised by plunging the pestle 10 times with 1,500 rpm (Tamson, the Netherlands). The homogenates were frozen and thawed twice using liquid nitrogen, after which the membranes were isolated using an ultra-centrifuge L70 at 40,000 g (Beckman Coulter, USA). Cell pellets were then washed and reconstituted in ice-cold 20 mM Tris-HCl buffer supplemented with 250 mM Sucrose at pH 7.4. Finally, the membrane samples where homogenized using a 23-gauge needle, snap-frozen with liquid nitrogen and stored until further experimentation at −80 °C. The protein content was determined using a BCA protein assay kit (Thermo Scientific, USA).
(§7) On the day of the experiment 0.25–0.5 μg membranes expressing either the β1-AR or the β2-AR, were co-incubated with [^3H]DHA (Perkin Elmer, USA) and increasing concentrations unlabeled ligand in HBSS buffer (Thermo Scientific, with Ca^2+ and Mg^2+) supplemented with 0.1% BSA for 1 h at 25 °C under gentile agitation. Either a 4 nM or 1 nM concentration of [^3H]DHA was used in combination with membranes expressing either the β1-AR or β2-AR, respectively. Binding reactions were terminated by filtration over a PEI coated GF/C filter (Perkin Elmer) using ice-cold 50 mM Tris-HCl buffer with 500 mM NaCl at pH 7.4. GF/C plates were dried at 52 °C and filter bound [^3H]DHA was quantified by adding 25 μL/well Microscint-O scintillation liquid and counting luminescence using the Wallac Microbeta counter, as described before.
(§8) IC50 values were determined by fitting the concentration-dependent displacement of [^3H]DHA by unlabeled ligands, with a three-parameter sigmoidal model in GraphPad Prism. […] Competition binding graphs represent the pooled data of ≥3 experiments, normalized to the fitted top and bottom of the reference sigmoidal displacement curve of unlabeled DHA.

β1-AR [3] = target: T2, β1-AR (Homo sapiens, UniProt P08588); experiment: [3H]DHA radioligand displacement on membranes of HEK293T cells expressing β1-AR; settings: for fold Ki trans vs PSScis at β1-AR: fold difference between Ki of trans and Ki at PSScis; for Active state at β1-AR: isomer state with higher affinity
Experimental: as §5, §6, §7, §8

[4] = PSScis and PSStrans by LC analysis; type: physicochemical; settings: for PSScis (% cis-isomer): 10 mM in DMSO after illumination with 360 nm; for PSScis (% cis-isomer) / PSStrans (% cis-isomer): LCMS area at isosbestic wavelength; for PSStrans (% cis-isomer): 10 mM in DMSO, 360 nm then 434 nm
Experimental: (§1) Solubility in buffer was explored for all compounds using nephelometry ([Bevan and Lloyd, 2000]) and these studies indicate good solubility of all azobenzene photoswiches up to at least 100 μM (Figure S1). […] For all compounds, 360 nm induces a large change in absorbance spectrum compared with the non-illuminated (dark) compounds (Table 1, Figure 2A, and S1), indicating photoisomerization to the cis-isomer. The absorbance peak (λmax) of Opto-prop-1-3 ranged between 319 and 347 nm for the trans-isomers and between 423 and 429 for the cis-isomers (Table 1), as is typical for azobenzene compounds ([Hauwert et al., 2018]). […] The photochemical conversions were determined by continuous illumination of the Opto-prop compounds with near UV-light (360 ± 20 nm) as 10-mM solutions in DMSO. Based on LCMS analysis, it was observed that all compounds obtained a high level of conversion to the cis-isomer with a photostationary state (PSS) of >88 area % cis-isomer (i.e. PSScis; Table 1). Subsequent back-switching to PSStrans with 434 nm maintained 22–29 area % cis-isomer (Table 1). The thermal relaxation of the PSScis state of the photoswitchable ligands was monitored over time by measuring absorbance at 254 nm. Only minor thermal relaxation to the trans-isomer could be detected at 20°C (not shown). An estimate of the relaxation rate at 20 °C was determined using a method by Priimagi et al. ([Ahmed et al., 2017]), which was performed in Hanks’ balanced salt solution (HBSS) using increased temperatures to enhance the speed of thermal relaxation. The Opto-prop ligands are all very stable as cis-isomer after illumination, with thermal relaxation half-lives of >10 days at 20 °C (See Table 1 and Figure S1).
For the determination of PSScis and PSStrans values by LC analysis (Table 1), a solution of the compound in DMSO (10 mM) was illuminated to PSScis with 360 nm and subsequently to PSStrans with 434 nm. PSS aliquots were withdrawn, diluted with MeCN and subjected to LCMS analysis with the corresponding isosbestic points wavelength: 278, 263 and 308 nm for Opto-prop-1-3, respectively.

[5] = UV-Vis absorbance spectra; type: physicochemical; settings: 25 μM in HBSS buffer with 1% DMSO; for λmax cis: cis-isomer; for λmax trans: trans-isomer
Experimental: as §1
UV-Vis spectra were obtained using a Thermo-scientific Evolution 201 PC spectrophotometer. Illumination was executed using a Sutter instruments Lambda LS with a 300 Watt full-spectrum lamp connected to a Sutter instruments Lambda 10-3 optical filter changer equipped with 360 ± 20 nm, 400 ± 5 nm, 434 ± 9 nm and 460 ± 5 nm filters. The light intensity is 0.93 mW/mm^2 using the 360 ± 20 nm filter, 0.22 mW/mm^2 using the 400 ± 5 nm filter, 0.79 mW/mm^2 for the 434 ± 9 nm filter and 0.26 mW/mm^2 for the 460 ± 5 nm filter as measured using a Thorlabs PM16-401 power meter.
For the determination of the UV-Vis spectra shown in Figure 2A, compounds (25 μM in 1% DMSO/HBSS buffer) were illuminated in Hellma Suprasil quartz 114-QS cuvettes with either a 360, 400, 434 or 460 nm filter for the indicated time. For the determination of PSScis and PSStrans states by UV spectroscopy (Figures S1D–S1F), a solution of the compound in 1% DMSO/HBSS buffer (25 μM) in a vial was illuminated to PSS cis with 360 nm (typically 4–5 min) and subsequently to PSS trans with 434 nm (typically 2–5 min). UV spectra were recorded.

[6] = Cis-to-trans thermal relaxation, Arrhenius extrapolation; type: physicochemical; settings: PSScis sample 25 μM in HBSS buffer with 1% DMSO; Arrhenius extrapolation to 20 °C
Experimental: as §1
Cis-to-trans thermal relaxations were performed in the dark at 25 μM of the PSS360 state of the Opto-prop-1, -2 or -3 in HBSS buffer with 1% DMSO at various temperatures (60°C, 70°C and 80°C). Absorbance was repeatedly measured at 320, 320 and 347 nm for Opto-prop-1, -2 or -3, respectively, with 60 s intervals.

β2-AR [7] = target: T1, β2-AR; experiment: Conformational β2-AR BRET sensor in HEK293A cells
Target sequence in this assay (P07550 1-369): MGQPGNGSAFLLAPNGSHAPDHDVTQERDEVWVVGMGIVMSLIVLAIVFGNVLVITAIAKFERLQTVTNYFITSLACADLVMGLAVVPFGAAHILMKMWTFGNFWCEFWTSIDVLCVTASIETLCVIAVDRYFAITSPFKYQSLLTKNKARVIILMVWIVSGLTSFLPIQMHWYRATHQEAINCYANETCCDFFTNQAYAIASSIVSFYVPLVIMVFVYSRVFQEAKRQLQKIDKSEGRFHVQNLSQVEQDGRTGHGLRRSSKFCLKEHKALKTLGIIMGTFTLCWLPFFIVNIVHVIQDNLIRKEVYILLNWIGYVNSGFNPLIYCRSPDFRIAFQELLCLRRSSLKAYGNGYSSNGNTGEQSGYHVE
Experimental: The next day, cells were washed with HBSS and incubated with a 1/1000 stock solution of furimazine. […] Wells pre-incubated with 0.1% DMSO/HBSS control were treated with vehicle control.
Raw BRET ratios were defined as acceptor emission/donor emission.
Antagonist pKB values were calculated using the agonist potency and concentration together with the antagonist IC50 values, using the Cheng-Prusoff equation.

β2-AR [8] = target: T1, β2-AR; experiment: Saturation binding of [3H]dihydroalprenolol, β2-AR membranes; parameters: host or cells: HEK293T, transient; membranes; settings: HEK293T membranes
Experimental: (§2) Figure S2. Saturation binding of [3H]dihydroalprenolol t o the β1 and β2 adrenergic rec eptors, related to Figure 3. Increasing concentrations [3H]dihydroalprenolol were incubated with membranes of HEK293T cells transiently expressing either the β1-AR (A) or β2-AR (B). Both the radioligand concentration and bound radioligand were quantified by scintillation counting. Data represent the po o led m ean ± SD of 4 experiments. Binding affinities (pKd) of [3H]dihydroalprenolol were determined by fitting the data in each individual experiment. […]
(§3) and a Bmax value of 33 ± 19 pmol/mg at membranes expressing the β2-AR.
(§4) (1 picture or pasted object on this page, not shown here)
Target sequence in this assay (P07550 whole entry): as the sequence (P07550 whole entry) above

β1-AR [9] = target: T2, β1-AR; experiment: Saturation binding of [3H]dihydroalprenolol, β1-AR membranes; parameters: host or cells: HEK293T, transient; membranes; settings: HEK293T membranes
Experimental: as §2, §3, §4

[10] = pKi PSScis, illuminated to PSScis (360 nm) before experiment
[11] = pKi trans, without prior illumination (trans-isomer)
[12] = pKi PSScis, β1-AR, illuminated to PSScis (360 nm) before experiment
[13] = pKi trans, β1-AR, without prior illumination (trans-isomer)

T2 sequence (P08588 whole entry): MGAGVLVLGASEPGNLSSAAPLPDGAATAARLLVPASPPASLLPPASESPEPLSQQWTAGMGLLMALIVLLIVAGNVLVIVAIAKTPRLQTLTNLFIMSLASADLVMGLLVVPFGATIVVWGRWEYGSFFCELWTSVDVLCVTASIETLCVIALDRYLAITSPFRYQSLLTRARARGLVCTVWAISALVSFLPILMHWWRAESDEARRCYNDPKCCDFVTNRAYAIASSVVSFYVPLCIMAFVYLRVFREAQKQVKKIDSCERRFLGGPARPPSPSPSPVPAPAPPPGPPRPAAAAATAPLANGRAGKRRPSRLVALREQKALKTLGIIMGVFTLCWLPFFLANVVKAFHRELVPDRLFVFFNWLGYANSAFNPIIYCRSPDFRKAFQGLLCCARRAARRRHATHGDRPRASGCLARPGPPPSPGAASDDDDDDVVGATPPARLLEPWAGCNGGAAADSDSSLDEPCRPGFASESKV

Structure (SMILES): CC(C)NCC(O)c1ccc(O)c(O)c1 (stereo not drawn) [isoprenaline, reference compound]
- effect on sarcomere shortening ([1]; 15 nM): further increased the shortening of the sarcomeres

Structure (SMILES): CC(C)NCC(O)COc1ccc(/N=N/c2ccccc2)cc1 (stereo not drawn) [Opto-prop-3]
- fold Ki trans vs PSScis at β2-AR (β2-AR [2]): 2.6 fold
- Active state at β2-AR (β2-AR [2]): cis
- Ki (β2-AR [2]; [10]): 3980 nM
- Ki (β2-AR [2]; [11]): 10000 nM
- Ki (β1-AR [3]; Ki at β1-AR, trans-isomer): < 13 nM
- selectivity β1-AR over β2-AR (β1-AR [3]; both isomers): ≥ 10 fold
- fold Ki trans vs PSScis at β1-AR (β1-AR [3]): 18 fold
- Active state at β1-AR (β1-AR [3]): trans
- Ki (β1-AR [3]; [12]): 200 nM
- Ki (β1-AR [3]; [13]): 12.6 nM
- PSScis (% cis-isomer) [4]: 93.8 ± 0.6 % cis-isomer
- PSStrans (% cis-isomer) [4]: 21.5 ± 0.1 % cis-isomer
- trans-content at PSStrans ([4]; 434 nm): 78.5%
- λmax cis [5]: 429 nm
- λmax trans [5]: 347 nm
- t1/2 20°C (thermal relaxation of cis-isomer) [6]: >240 h

Structure (SMILES): CC(C)NCC(O)COc1ccccc1/N=N\c1ccccc1 (stereo not drawn) [cis-Opto-prop-1]
- selectivity in binding β2-AR over β1-AR (β2-AR [2]): 21 fold

Structure (SMILES): CC(C)NCC(O)COc1ccccc1/N=N/c1ccccc1 (stereo not drawn) [Opto-prop-1]
- selectivity β2-AR over β1-AR (β2-AR [2]; both isomers): ≥ 10 fold
- fold Ki trans vs PSScis at β2-AR (β2-AR [2]): 4 fold and 4.3 fold
- Active state at β2-AR (β2-AR [2]): trans
- Ki (β2-AR [2]; [10]): 3.16 nM
- Ki (β2-AR [2]; [11]): 0.794 nM
- Ki (β1-AR [3]; Ki at β1-AR, trans-isomer): < 13 nM
- fold Ki trans vs PSScis at β1-AR (β1-AR [3]): 9 fold and 9.4 fold
- Active state at β1-AR (β1-AR [3]): trans
- Ki (β1-AR [3]; [12]): 79.4 nM
- Ki (β1-AR [3]; [13]): 7.94 nM
- PSScis (% cis-isomer) [4]: 88.9 ± 1.0 % cis-isomer
- PSStrans (% cis-isomer) [4]: 28.8 ± 0.3 % cis-isomer
- λmax cis [5]: 423 nm
- λmax trans [5]: 321 nm
- t1/2 20°C (thermal relaxation of cis-isomer) [6]: >240 h

Structure (SMILES): CCCc1ccccc1OCC(O)CNC(C)C (stereo not drawn) [[3H]dihydroalprenolol, dihydroalprenolol]
- Bmax, β2-AR membranes (β2-AR [8]): 33 ± 19 pmol/mg
- Bmax, β1-AR membranes (β1-AR [9]): 56 ± 16 pmol/mg

More lines, main results first:

- selectivity in binding affinity β1-AR over β2-AR (β1-AR [3]; trans-isomer): 813 fold
Structure (SMILES): CC(C)NCC(O)COc1ccc(/N=N/c2ccccc2)cc1 (stereo not drawn) [trans-Opto-prop-3]

- increase in β2-AR affinity upon 360 nm illumination (β2-AR [2]; cis vs trans): ~3 log-units
- selectivity in binding β2-AR over β1-AR (β2-AR [2]): 78 fold
Structure (SMILES): CC(C)NCC(O)COc1cccc(/N=N\c2ccccc2)c1 (stereo not drawn) [cis-Opto-prop-2]
- effect on isoprenaline-enhanced contractility [1]: attenuated

- IC50 (β2-AR [7]): 1000 nM
- fold Ki trans vs PSScis at β2-AR (β2-AR [2]): 587 fold
Structure (SMILES): CC(C)NCC(O)COc1cccc(/N=N/c2ccccc2)c1 (stereo not drawn) [trans-Opto-prop-2]
- effect on isoprenaline-enhanced contractility [1]: not
